Reference: ChEMBL document CHEMBL1671721, “Chemical validation of phosphodiesterase C as a chemotherapeutic target in Trypanosoma cruzi, the etiological agent of Chagas' disease” (Antimicrob Agents Chemother, 2010)
Each block holds one molecule with its values, some of them ahead of it. Active and inactive are the calls of the source. No cut-off for these calls is given here.

Assays:
Trypanosoma cruzi [1] = test: Antimicrobial activity against Trypanosoma cruzi Y infected in L6E9 myoblasts assessed as inhibition of [3H]uracil incorporation at 1 uM after 3 hrs postinfection by scintillation counter; type: functional; design: scale not given: the % may be the effect or the level left
Trypanosoma cruzi [2] = test: Antimicrobial activity against Trypanosoma cruzi Y infected in L6E9 myoblasts assessed as inhibition of [3H]uracil incorporation at 25 uM after 3 hrs postinfection by scintillation counter; type: functional; design: scale not given: the % may be the effect or the level left
[3] = target: T1, Cyclic nucleotide specific phosphodiesterase (Trypanosoma cruzi, UniProt Q53I59); test: Inhibition of Trypanosoma cruzi Y PDEC after 30 mins
T1 sequence (Q53I59 whole entry): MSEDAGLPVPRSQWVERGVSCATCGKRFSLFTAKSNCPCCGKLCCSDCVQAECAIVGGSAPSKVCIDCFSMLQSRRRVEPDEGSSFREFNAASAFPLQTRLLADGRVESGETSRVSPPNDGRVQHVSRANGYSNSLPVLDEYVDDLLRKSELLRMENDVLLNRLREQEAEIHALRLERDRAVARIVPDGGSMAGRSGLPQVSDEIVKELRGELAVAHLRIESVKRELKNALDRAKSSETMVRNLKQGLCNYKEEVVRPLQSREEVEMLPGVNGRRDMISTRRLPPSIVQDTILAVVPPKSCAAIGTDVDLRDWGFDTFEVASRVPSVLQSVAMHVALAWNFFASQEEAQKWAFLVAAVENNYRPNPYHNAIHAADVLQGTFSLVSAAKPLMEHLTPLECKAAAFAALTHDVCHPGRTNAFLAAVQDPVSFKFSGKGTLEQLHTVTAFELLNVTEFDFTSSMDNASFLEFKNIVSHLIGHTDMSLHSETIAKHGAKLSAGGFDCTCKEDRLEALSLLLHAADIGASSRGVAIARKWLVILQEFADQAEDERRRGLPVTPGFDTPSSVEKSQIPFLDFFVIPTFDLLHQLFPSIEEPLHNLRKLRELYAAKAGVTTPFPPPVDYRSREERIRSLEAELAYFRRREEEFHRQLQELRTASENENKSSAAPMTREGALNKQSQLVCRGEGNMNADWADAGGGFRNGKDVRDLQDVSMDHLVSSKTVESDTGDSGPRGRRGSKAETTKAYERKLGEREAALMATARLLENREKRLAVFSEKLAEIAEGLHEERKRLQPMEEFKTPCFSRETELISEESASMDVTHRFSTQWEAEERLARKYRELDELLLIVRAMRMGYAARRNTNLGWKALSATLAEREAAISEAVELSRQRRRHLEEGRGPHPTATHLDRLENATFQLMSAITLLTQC

Trypanosoma cruzi [4] = test: Antimicrobial activity against Trypanosoma cruzi infected in rat L6E9 myoblasts assessed as inhibition of [3H]uracil incorporation by giemsa staining; settings: L6E9, 3 h
Trypanosoma cruzi [5] = test: Antimicrobial activity against Trypanosoma cruzi Y infected in rat L6E9 myoblasts assessed as inhibition of [5,6-3H]uracil incorporation after 3 days postinfection by scintillation counter; type: functional, organism-based
[6] = Cytotoxicity against rat L6E9 myoblasts at 1 to 25 uM
Phosphodiesterase 4 = Phosphodiesterase 4 (Homo sapiens, UniProt P27815+Q08499+Q07343+Q08493); test: Inhibition of human PDE4 after 30 mins; type: protein assay
[7] = target: T2, Cyclic nucleotide specific phosphodiesterase (Trypanosoma cruzi) (UniProt Q53I59); test: Inhibition of Trypanosoma cruzi Y PDEC assessed as cAMP accumulation at 43 uM after 1 to 5 mins by luminescence spectrophotometry
T2 sequence (whole entry): T1 sequence (Q53I59 whole entry)

[8] = target: T2, Cyclic nucleotide specific phosphodiesterase (Trypanosoma cruzi); test: Inhibition of Trypanosoma cruzi Y PDEC assessed as cAMP accumulation at 90 uM after 1 to 5 mins by luminescence spectrophotometry
[9] = target: T2, Cyclic nucleotide specific phosphodiesterase (Trypanosoma cruzi); test: Inhibition of Trypanosoma cruzi Y PDEC assessed as cAMP accumulation at 26 uM after 1 to 5 mins by luminescence spectrophotometry
[10] = target: T2, Cyclic nucleotide specific phosphodiesterase (Trypanosoma cruzi); test: Inhibition of Trypanosoma cruzi Y PDEC assessed as cAMP accumulation at 4.5 to 45 uM after 1 to 5 mins by luminescence spectrophotometry
[11] = target: T2, Cyclic nucleotide specific phosphodiesterase (Trypanosoma cruzi); test: Inhibition of Trypanosoma cruzi Y PDEC assessed as decrease in osmolarity preincubated with 8.7 uM compound measured after 10 mins by light scattering
[12] = target: T2, Cyclic nucleotide specific phosphodiesterase (Trypanosoma cruzi); test: Inhibition of Trypanosoma cruzi Y PDEC assessed as volume recovery preincubated with 8.7 uM compound measured after 10 mins by light scattering

- IC50 [3]: 4.1 µM
Compound: O=C1c2ccccc2C(=O)N1Cc1csc(-c2cccs2)n1
- Activity (Trypanosoma cruzi [1]): 51%
- Activity (Trypanosoma cruzi [2]): 98%

- IC50 (Trypanosoma cruzi [4]): 3.7 µM
Compound: O=C(Cn1ccnc1[N+](=O)[O-])NCc1ccccc1 [BENZNIDAZOLE]

- IC50 (Trypanosoma cruzi [4]): 2.8 µM
Compound: CC1CS(=O)(=O)CCN1/N=C/c1ccc([N+](=O)[O-])o1 (stereo not given) [NIFURTIMOX]

- IC50 [3]: 6.5 µM
- IC50 (Phosphodiesterase 4): 29 µM
- inhibition [7]: Active
- inhibition [8]: Active
- inhibition [9]: Active
- inhibition [10]: Active
- inhibition [11]: inactive
- inhibition [12]: inactive
Compound: CCCC(=O)c1ccc(OC2CCN(C(=O)OC(C)(C)C)CC2)c(OC)c1
- IC50 (Trypanosoma cruzi [5]): 3.3 µM
- Activity [6]: Non-toxic
